What was measured:
[1] = Pharmacokinetics in mice (IV and oral); assay type: in vivo, female CDF
Method: Plasma samples from pharmacokinetic/pharmacodynamic studies were analyzed for the concentration of Compound (A) using an LC/MS/MS (liquid chromatography/mass spectrometry/mass spectrometry) assay with a standard curve range of 5 to 20,000 ng/mL (10 to 40,000 nM) for studies in mice and 2 to 1000 ng/mL (4 to 2000 nM) for studies in rats and dogs. In pharmacodynamic studies, concentrations of Compound (A) were determined using the LC/MS/MS assay with a standard curve range of 5 to 20,000 ng/mL (10 to 40,000 nM) in mouse plasma. The LC/MS/MS assay was also used to determine the concentrations of Compound (B), a degradation product of Compound (A) formed in the stock/dosing solution or in vivo, in rat and dog plasma. The structure of Compound (B) is: [drawing 9]
Compound (A) was administered intravenously (5 mg/kg) and orally (48 mg/kg) to female CDF, mice. For the IV route, Compound (A) was dissolved in 20% ethanol solution and was given as a bolus dose. For the oral route, solutions of Compound (A) were prepared as a 3:7 mixture of ethanol:phosphate buffered saline (0.25 M, pH 8.0) and administered by gavage. Plasma samples for determinating concentrations of Compound (A) were taken from 3 separate mice at 5, 15, and 45 min, and 2, 4, and 6 h after the IV dose, and at 15 and 45 min, and 2, 4, and 6 h after the oral dose.

[2] = Excretion in bile duct cannulated rats; assay type: in vivo, Sprague Dawley rats; details: intraarterial 10 mg/kg or oral 20 mg/kg, 9 h
Method: In another study, bile duct cannulated Sprague Dawley rats (n=2 per group) received a single intraterial (10 mg/kg) or oral (20 mg/kg) dose of Compound (A), and bile, urine, and plasma samples were collected over a period of 9 h after dose. There was negligible excretion of intact Compound (A) in the bile (C 1% of the dose). There was some detectable amount of Compound (A) in the urine, but actual concentrations were not quantified due to lack of stability data for Compound (A) in the urine. Several drug-related compounds in the urine and plasma were tentatively identified by LC/MS and included an isomer (M+0), and a hydrolysis product (M+18). In addition, a metabolite (M−2) was detected in the plasma.

mouse liver microsomes = experiment: Oxidative metabolism in mouse liver microsomes; assay type: in vitro ADME; details: 40 :M, NADPH
Method: (§1) Upon incubation of Compound (A) (40 :M) with mouse, rat, dog, and human liver microsomes fortified with nicotinamide adenine dinucleotide phosphate (NADPH), the rate of oxidative metabolism of Compound (A) was 2.1, 0.7, 1.2 and 1.3 nmol/min/mg protein, respectively. Moreover, the metabolite distribution was similar among all species (metabolite masses included several […] and M−2 compounds). Qualitatively, there appeared to be similar production of metabolites of Compound (A) after incubation with rat or human hepatocytes compared to microsomal incubations. Products similar to those arising from the chemical degradation of Compound (A) appeared to be the major products in the hepatocyte incubations.

rat liver microsomes = experiment: Oxidative metabolism in rat liver microsomes; assay type: in vitro ADME; details: 40 :M, NADPH
Method: as §1

dog liver microsomes = experiment: Oxidative metabolism in dog liver microsomes; assay type: in vitro ADME; details: 40 :M, NADPH
Method: as §1

human liver microsomes = experiment: Oxidative metabolism in human liver microsomes; assay type: in vitro ADME; details: 40 :M, NADPH
Method: as §1

CYP2C9 = CYP2C9 (Homo sapiens, UniProt P11712); experiment: Inhibition of recombinant human CYP2C9 (deethylation of 3-cyano-7-ethoxycoumarin); assay type: in vitro ADME; details: recombinant human CYP isoform
Method: (§2) The ability of Compound (A) to inhibit the major human cytochrome P450s (CYPs) responsible for the metabolism of drugs was evaluated in vitro using recombinant human CYP isoforms. IC50 values for inhibition of deethylation of 3-cyano-7-ethoxycoumarin (CYP1A2, CYP2C9, CYP2C19, and CYP2D6) and for inhibition of dealkylation of benzoyl-resorufin (CYP3A4) were determined.

CYP2C19 = CYP2C19 (Homo sapiens, UniProt P33261); experiment: Inhibition of recombinant human CYP2C19 (deethylation of 3-cyano-7-ethoxycoumarin); assay type: in vitro ADME; details: recombinant human CYP isoform
Method: as §2

CYP2D6 = CYP2D6 (Homo sapiens, UniProt P10635); experiment: Inhibition of recombinant human CYP2D6 (deethylation of 3-cyano-7-ethoxycoumarin); assay type: in vitro ADME; details: recombinant human CYP isoform
Method: as §2

CYP3A4 = target: T1, CYP3A4 (Homo sapiens, UniProt P08684); experiment: Biotransformation of Compound (A) in human liver microsomes with specific CYP inhibitors; assay type: in vitro ADME
T1 construct: from tissue; host or cells: human liver microsomes

[3] = test system: Caco-2 cell culture system; experiment: Caco-2 cell permeability
Method: The Pc of some model compounds, for which the bioavailability in humans is known, was also determined in the same experiment.

[4] = Single dose oral toxicity study in dogs; assay type: in vivo; details: oral solution 0.4 mL/kg
Method: The mean (SD) [n=3] […] Although the oral formulation for both studies was identical, the total volume of the oral solution administered in the current study was about 1.3 mL/kg while that in the toxicology study was 0.4 mL/kg. […] Compound (A) is an acid labile drug, thus, the higher exposure after oral solution in the current study compared to the toxicology study is likely related to better protection from gastric acid degradation.

[5] = Stability of liquid formulation in 80:20 propylene glycol:ethanol; assay type: physicochemical; details: for can be stored for up to: 2.5 mg/mL to 12.5 mg/mL in 80:20 propylene glycol:ethanol
Method: The stability of compound (A) in 80:20 propylene glycol:ethanol was evaluated by reconstituting 25 mg Compound (A) with 80:20 propylene glycol:ethanol to provide a liquid oral dosage form at concentrations of 2.5 mg/mL to 12.5 mg/mL. The resulting liquid oral dosage form was then stored up to 20 hours at ambient temperature (20° C. to 25° C.) and room light and at refrigerated temperature (2° C. to 8° C.).
The change in total impurities was attributed to an increase of an oxazine impurity/degradant whose structure is depicted below: [drawing 10] Samples were analyzed using HPLC with a 75 mm×4.6 mm i.d., 3.5 :m particle sizeWaters Symmetry Shield RP8 column and with UV detection at 240 nm. 10 :L injection volumes were used, the column was maintained at ambient temperature and the flow rate was 1 mL/min. Analysis times were 1 hour and samples were eluted using gradient elution with a mobile phase of water (0.05% acetic acid) (mobil phase A) and a mobile phase of acetonitrile (0.05% acetic acid). The elution profile is described in the table below.

Sequence of CYP2C9 (P11712 whole entry, canonical isoform): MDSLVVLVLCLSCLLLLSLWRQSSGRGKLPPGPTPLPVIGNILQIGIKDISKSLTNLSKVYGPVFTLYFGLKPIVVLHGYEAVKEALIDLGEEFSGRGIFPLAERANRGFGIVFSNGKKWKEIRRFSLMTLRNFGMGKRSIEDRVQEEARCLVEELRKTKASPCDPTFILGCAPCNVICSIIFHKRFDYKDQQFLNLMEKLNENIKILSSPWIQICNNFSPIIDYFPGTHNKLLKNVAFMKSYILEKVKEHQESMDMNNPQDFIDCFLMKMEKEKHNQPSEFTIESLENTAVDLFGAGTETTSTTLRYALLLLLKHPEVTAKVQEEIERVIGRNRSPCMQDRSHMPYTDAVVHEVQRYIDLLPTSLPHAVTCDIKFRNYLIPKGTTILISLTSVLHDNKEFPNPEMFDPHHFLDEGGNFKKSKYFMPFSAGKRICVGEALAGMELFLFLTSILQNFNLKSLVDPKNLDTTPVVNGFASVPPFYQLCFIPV
Sequence of CYP2C19 (P33261 whole entry, canonical isoform): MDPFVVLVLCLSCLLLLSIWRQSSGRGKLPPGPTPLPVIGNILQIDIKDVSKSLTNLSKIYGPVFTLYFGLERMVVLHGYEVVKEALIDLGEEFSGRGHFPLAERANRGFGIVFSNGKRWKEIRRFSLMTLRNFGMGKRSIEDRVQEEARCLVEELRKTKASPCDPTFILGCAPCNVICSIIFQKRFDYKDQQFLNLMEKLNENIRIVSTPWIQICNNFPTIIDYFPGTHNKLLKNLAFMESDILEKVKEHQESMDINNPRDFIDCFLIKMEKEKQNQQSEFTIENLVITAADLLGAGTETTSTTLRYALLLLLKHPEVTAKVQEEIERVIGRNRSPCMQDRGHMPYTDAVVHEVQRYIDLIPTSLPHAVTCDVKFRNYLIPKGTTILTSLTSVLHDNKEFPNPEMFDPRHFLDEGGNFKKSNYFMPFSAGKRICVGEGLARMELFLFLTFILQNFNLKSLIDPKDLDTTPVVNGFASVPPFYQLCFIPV
T1 sequence (P08684 whole entry): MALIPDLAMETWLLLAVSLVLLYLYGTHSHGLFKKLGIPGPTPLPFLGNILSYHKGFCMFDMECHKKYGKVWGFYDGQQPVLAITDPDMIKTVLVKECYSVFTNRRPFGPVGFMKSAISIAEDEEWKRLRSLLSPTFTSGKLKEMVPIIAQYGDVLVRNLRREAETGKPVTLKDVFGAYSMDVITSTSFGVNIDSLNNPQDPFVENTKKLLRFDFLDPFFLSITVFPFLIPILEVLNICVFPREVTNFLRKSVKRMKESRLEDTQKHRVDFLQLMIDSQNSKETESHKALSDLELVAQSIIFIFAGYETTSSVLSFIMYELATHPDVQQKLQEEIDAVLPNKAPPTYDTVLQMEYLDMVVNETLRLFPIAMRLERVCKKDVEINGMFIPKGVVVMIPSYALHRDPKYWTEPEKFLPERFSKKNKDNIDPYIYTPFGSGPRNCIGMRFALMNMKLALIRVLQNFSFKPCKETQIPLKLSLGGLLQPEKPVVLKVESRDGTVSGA
Sequence of CYP2D6 (P10635 whole entry, canonical isoform): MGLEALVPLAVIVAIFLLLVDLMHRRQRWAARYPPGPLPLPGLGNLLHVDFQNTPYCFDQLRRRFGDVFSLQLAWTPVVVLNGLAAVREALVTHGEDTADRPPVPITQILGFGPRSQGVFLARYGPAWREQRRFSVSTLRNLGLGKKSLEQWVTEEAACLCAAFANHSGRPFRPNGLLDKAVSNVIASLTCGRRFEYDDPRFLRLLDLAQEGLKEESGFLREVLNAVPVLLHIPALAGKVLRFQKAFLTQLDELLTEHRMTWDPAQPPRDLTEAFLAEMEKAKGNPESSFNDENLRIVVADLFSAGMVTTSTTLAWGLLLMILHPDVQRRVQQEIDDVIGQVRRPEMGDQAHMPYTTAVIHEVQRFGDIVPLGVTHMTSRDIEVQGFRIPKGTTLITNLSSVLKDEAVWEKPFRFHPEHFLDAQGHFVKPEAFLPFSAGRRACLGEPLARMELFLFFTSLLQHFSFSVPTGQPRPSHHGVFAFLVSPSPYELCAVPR

## C/C(=C\c1csc(C)n1)[C@@H]1C[C@@H]2O[C@]2(C)CCC[C@H](C)[C@H](O)[C@@H](C)C(=O)C(C)(C)[C@@H](O)CC(=O)N1 (relative stereo) [Compound (A), [1S-[1R*,3R*(E),7R*,10S*,11R*,12R*,16S*]]-7,11-dihydroxy 8,8,10,12,16-pentamethyl-3-[1-methyl-2-(2-methyl-4-thiazolyl)ethenyl-4-aza-17-oxobicyclo[14.1.0]heptadecane-5,9-dione]
[1]; IV 5 mg/kg
  steady-state volume of distribution (VSS): 6.3 L/kg
  terminal elimination half-life (T-HALF): approximately 3 h
[1]; IV 5 mg/kg, liver blood flow 90 mL/min/kg
  CLT as percent of liver blood flow: 76%
[1]; IV bolus 5 mg/kg
  systemic clearance or total body clearance (CLT): 68 mL/min/kg
[1]; oral 48 mg/kg vs IV 5 mg/kg
  absolute oral bioavailability: 31%
[1]; oral 48 mg/kg, ethanol:phosphate buffered saline 3:7
  peak plasma concentration (CMAX): 5983 ng/mL
[2]
  excretion of intact Compound (A) in the bile: < 1 % of the dose
Mouse liver microsomes
  rate of oxidative metabolism: 2.1 nmol/min/mg protein
Rat liver microsomes
  rate of oxidative metabolism: 0.7 nmol/min/mg protein
Dog liver microsomes
  rate of oxidative metabolism: 1.2 nmol/min/mg protein
Human liver microsomes
  rate of oxidative metabolism: 1.3 nmol/min/mg protein
CYP2C9
  inhibition of CYP2C9: did not inhibit
CYP2C19
  inhibition of CYP2C19: did not inhibit
CYP2D6
  inhibition of CYP2D6: did not inhibit
CYP3A4
  cytochrome P450 responsible for metabolism: may be a substrate for CYP3A4
[3]; Caco-2, 10 pM (Ca 5 pg/mL)
  permeability coefficient (Pc): 9.4 ×10⁻⁶ cm/s
[3]; Caco-2, 30 pM (Ca 15 pg/mL)
  permeability coefficient (Pc): 10.5 ×10⁻⁶ cm/s
[3]; Caco-2, 100 pM (Ca 50 pg/mL)
  permeability coefficient (Pc): 12.8 ×10⁻⁶ cm/s
[4]
  dose-normalized mean AUC: 257 ng·h/mL
[5]; ambient temperature
  can be stored for up to: up to 6 hours
[5]; refrigerated temperature
  can be stored for up to: up to 20 hours
[5]; ambient temperature (20° C. to 25° C.) and room light, 20 hours
  total impurities/degradants and potency: increase in total impurities/degradants and a decrease in potency
[5]; refrigerated temperature (2° C. to 8° C.), 20 hours
  total impurities/degradants: slight increase in total impurities/degradants
[5]; up to 20 hours, either storage condition
  appearance of the liquid oral dosage form: No changes from initial

— patent USRE40387E1, “Pharmaceutical compositions, dosage forms and methods for oral administration of epothilones” (Bristol-Myers Squibb Company, priority 2001, dated 2008)
